Source: ChEMBL document CHEMBL1201862, “PubChem BioAssay data set” (2004)
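Compound exposure: 48 hours, 5 concentrations, 96-well plates. The concentration for 50% growth inhibition is given as GI50.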 Active and inactive are the calls of the source. Rule as the data show it: active = GI50 up to about 1.1 µM and inactive = higher.

Experiments:
Assay in all cases: inhibition of tumour cell growth, NCI panel, 48 h
SK-MEL-28 = test system: SK-MEL-28
786-0 = test system: 786-0
SK-OV-3 = test system: SK-OV-3
NCI-H23 = test system: NCI-H23
ACHN = test system: ACHN
OVCAR-3 = test system: OVCAR-3
SR = test system: SR
SNB-75 = test system: SNB-75
SNB-19 = test system: SNB-19
MOLT-4 = test system: MOLT-4
TK-10 = test system: TK-10
M14 = test system: M14
RPMI-8226 = test system: RPMI-8226
KM12 = test system: KM12
HCC 2998 = test system: HCC 2998
SF-539 = test system: SF-539
U-251 = test system: U-251
OVCAR-4 = test system: OVCAR-4

Structure (SMILES) | GI50 (SK-MEL-28) | GI50 (786-0) | GI50 (SK-OV-3) | GI50 (NCI-H23) | GI50 (ACHN) | GI50 (OVCAR-3) | GI50 (SR) | GI50 (SNB-75) | GI50 (SNB-19) | GI50 (MOLT-4) | GI50 (TK-10) | GI50 (M14) | GI50 (RPMI-8226) | GI50 (KM12) | GI50 (HCC 2998) | GI50 (SF-539) | GI50 (U-251) | GI50 (OVCAR-4)
CC(C)(C)N/N=N/c1cn(C2OC(CO)C(O)C2O)c(=O)[nH]c1=O (configuration not stated) | > 100 µM (inactive) | > 100 µM (inactive) | > 100 µM (inactive) | > 100 µM (inactive) | > 100 µM (inactive) | > 100 µM (inactive) | 20.8 µM (inactive) | > 100 µM (inactive) | > 100 µM (inactive) | > 100 µM (inactive) | > 100 µM (inactive) | > 100 µM (inactive) | 20 µM (inactive) | > 100 µM (inactive) | > 100 µM (inactive) |  |  | 
CC1=NN(C(=O)c2ccc(Cl)cc2)C(=O)/C1=C/c1ccco1 | > 100 µM (inactive) | > 100 µM (inactive) | > 100 µM (inactive) | > 100 µM (inactive) | > 100 µM (inactive) | > 100 µM (inactive) |  |  | > 100 µM (inactive) | > 100 µM (inactive) | > 100 µM (inactive) | > 100 µM (inactive) | > 100 µM (inactive) | > 100 µM (inactive) | > 100 µM (inactive) | > 100 µM (inactive) | > 100 µM (inactive) | > 100 µM (inactive)
Cc1cc(NS(=O)(=O)c2ccc(NC(=O)c3cccc4c(Nc5ccc(S(=O)(=O)Nc6cc(C)on6)cc5)c5ccccc5nc34)cc2)no1 | 40.3 µM (inactive) | 33 µM (inactive) | > 100 µM (inactive) | 44.5 µM (inactive) | > 100 µM (inactive) | 87.3 µM (inactive) |  | 22.3 µM (inactive) | 32.7 µM (inactive) | 34.1 µM (inactive) |  | 72.6 µM (inactive) | 64.4 µM (inactive) | > 100 µM (inactive) |  | 27.4 µM (inactive) | 30.5 µM (inactive) | 17.2 µM (inactive)
Cc1cc2c(c3c1c1ccccc1n3C)C(=O)c1ccccc1C2=O | > 100 µM (inactive) | > 100 µM (inactive) |  | 48.5 µM (inactive) | > 100 µM (inactive) | > 100 µM (inactive) |  | > 100 µM (inactive) | > 100 µM (inactive) | 53.6 µM (inactive) | > 100 µM (inactive) | > 100 µM (inactive) | > 100 µM (inactive) | > 100 µM (inactive) | > 100 µM (inactive) | > 100 µM (inactive) | > 100 µM (inactive) | > 100 µM (inactive)
Cn1cc(NC(=O)c2cc(NC(=O)CCCCCCCCCC(=O)Nc3cc(C(=O)Nc4cc(C(=O)NCCC(=N)N)n(C)c4)n(C)c3)cn2C)cc1C(=O)NCCC(=N)N | 11.9 µM (inactive) | 29.4 µM (inactive) | 92 µM (inactive) | 34.8 µM (inactive) | 23.5 µM (inactive) | 19.2 µM (inactive) |  | 27.9 µM (inactive) | 30.8 µM (inactive) | 25.1 µM (inactive) | 22.7 µM (inactive) | 23.1 µM (inactive) | 8.26 µM (inactive) | 13.1 µM (inactive) |  | 37.9 µM (inactive) | 27.4 µM (inactive) | 34.8 µM (inactive)
O=C(CC(=O)C1CCOC1=O)C(=O)Nc1ccc(Cl)cc1Cl (configuration not stated) | > 100 µM (inactive) | > 100 µM (inactive) | > 100 µM (inactive) | > 100 µM (inactive) | > 100 µM (inactive) | > 100 µM (inactive) |  | 53.1 µM (inactive) | > 100 µM (inactive) |  | > 100 µM (inactive) | > 100 µM (inactive) | > 100 µM (inactive) | > 100 µM (inactive) | > 100 µM (inactive) | > 100 µM (inactive) | > 100 µM (inactive) | > 100 µM (inactive)
CCCCCCCCCCCCCS(=O)(=O)O | > 100 µM (inactive) | > 100 µM (inactive) |  | > 100 µM (inactive) | > 100 µM (inactive) | > 100 µM (inactive) |  | > 100 µM (inactive) | > 100 µM (inactive) |  | > 100 µM (inactive) | > 100 µM (inactive) |  | > 100 µM (inactive) | > 100 µM (inactive) | > 100 µM (inactive) | > 100 µM (inactive) | > 100 µM (inactive)
CC1C[C@H](OC(N)=O)C(C)CC1=O (some centres not stated) |  | > 100 µM (inactive) | > 100 µM (inactive) | > 100 µM (inactive) | > 100 µM (inactive) | > 100 µM (inactive) |  | > 100 µM (inactive) | > 100 µM (inactive) | > 100 µM (inactive) | > 100 µM (inactive) | > 100 µM (inactive) | > 100 µM (inactive) | > 100 µM (inactive) | > 100 µM (inactive) | > 100 µM (inactive) | > 100 µM (inactive) | > 100 µM (inactive)
CCOc1ccccc1NC(=O)CCC(=O)OC | > 100 µM (inactive) | > 100 µM (inactive) | > 100 µM (inactive) | > 100 µM (inactive) | > 100 µM (inactive) | > 100 µM (inactive) | > 47 µM (inactive) | > 100 µM (inactive) | > 100 µM (inactive) | > 100 µM (inactive) | > 100 µM (inactive) | > 100 µM (inactive) | > 48.3 µM (inactive) | > 100 µM (inactive) | > 100 µM (inactive) |  | > 49.9 µM (inactive) | > 100 µM (inactive)
O=C1[C@@H]2C(c3ccc(Cl)cc3Cl)=NO[C@@H]2C(=O)N1c1ccc(Cc2ccc(N3C(=O)[C@H]4C(c5ccc(Cl)cc5Cl)=NO[C@H]4C3=O)cc2)cc1 | 67.1 µM (inactive) | 45.9 µM (inactive) | > 100 µM (inactive) | > 100 µM (inactive) |  | 61 µM (inactive) |  | > 100 µM (inactive) |  | 17.3 µM (inactive) | 51.8 µM (inactive) | 37.7 µM (inactive) | 21.2 µM (inactive) | > 100 µM (inactive) | > 100 µM (inactive) | 52.7 µM (inactive) |  | > 100 µM (inactive)
CN1CCS(=O)(=O)NC(Cc2ccccc2)C(=O)N2CCCC2C1=O (configuration not stated) | > 100 µM (inactive) | > 100 µM (inactive) | > 100 µM (inactive) | > 100 µM (inactive) | > 100 µM (inactive) | > 100 µM (inactive) |  | > 100 µM (inactive) | > 100 µM (inactive) | > 100 µM (inactive) | > 100 µM (inactive) |  | > 100 µM (inactive) | > 100 µM (inactive) | > 100 µM (inactive) | > 100 µM (inactive) | > 100 µM (inactive) | > 100 µM (inactive)
S=C(Nc1ccccc1)N1N=C2c3ccccc3CC[C@H]2[C@@H]1c1ccccc1 | 8.09 µM (inactive) | 4.31 µM (inactive) | 2.22 µM (inactive) | 5.27 µM (inactive) | 6.78 µM (inactive) | 1.88 µM (inactive) | 0.248 µM (active) |  | 9.18 µM (inactive) | 4 µM (inactive) | > 100 µM (inactive) | 4.89 µM (inactive) | 4.34 µM (inactive) | 2.79 µM (inactive) | > 100 µM (inactive) | 5.87 µM (inactive) | 7.59 µM (inactive) | 47.1 µM (inactive)
O=C(Nc1ccc(Cl)c(Cl)c1)C(=O)C(C(=O)c1ccccc1-c1ccccc1)C1OC(=O)c2ccccc21 (configuration not stated) | > 100 µM (inactive) | 11.2 µM (inactive) | 28.5 µM (inactive) | 10.6 µM (inactive) | 31.3 µM (inactive) | 13.1 µM (inactive) |  | 13 µM (inactive) |  | 14 µM (inactive) | 23.6 µM (inactive) | 14.7 µM (inactive) | 8.24 µM (inactive) | 14.7 µM (inactive) | 14.5 µM (inactive) | 10.1 µM (inactive) | 9.1 µM (inactive) | 
CCCNCCCC(NC(C)=O)C(=O)NCc1ccccc1 (configuration not stated) | > 100 µM (inactive) | > 100 µM (inactive) | > 100 µM (inactive) | > 100 µM (inactive) | > 100 µM (inactive) | > 100 µM (inactive) |  | 51.8 µM (inactive) | > 100 µM (inactive) | > 100 µM (inactive) | > 100 µM (inactive) | > 100 µM (inactive) | > 100 µM (inactive) | > 100 µM (inactive) | > 100 µM (inactive) | > 100 µM (inactive) | > 100 µM (inactive) | > 100 µM (inactive)
COc1cc(CCc2ccc(OC(C)=O)cc2)cc(OC)c1OC | > 100 µM (inactive) | > 100 µM (inactive) |  |  | 79.4 µM (inactive) | > 100 µM (inactive) |  | 80.5 µM (inactive) | > 100 µM (inactive) | > 100 µM (inactive) | > 100 µM (inactive) | > 100 µM (inactive) | 86.3 µM (inactive) | > 100 µM (inactive) |  | > 100 µM (inactive) | > 100 µM (inactive) | > 100 µM (inactive)
CCN(CC)c1ccc(C(=O)c2ccccc2C(=O)O)c(O)c1 | > 100 µM (inactive) | > 100 µM (inactive) | > 100 µM (inactive) | > 100 µM (inactive) | > 100 µM (inactive) | > 100 µM (inactive) |  | > 100 µM (inactive) | > 100 µM (inactive) | > 100 µM (inactive) | > 100 µM (inactive) | > 100 µM (inactive) | > 100 µM (inactive) | > 100 µM (inactive) |  | > 100 µM (inactive) | > 100 µM (inactive) | > 100 µM (inactive)
C#Cc1cc(CN(CC(=O)OC(C)(C)C)CC(=O)OC(C)(C)C)nc(CN(CC(=O)OC(C)(C)C)CC(=O)OC(C)(C)C)c1 | 7.5 µM (inactive) | 7.06 µM (inactive) | 6.55 µM (inactive) | 4.74 µM (inactive) | 4.84 µM (inactive) | 3.04 µM (inactive) |  | 11.6 µM (inactive) | 2.74 µM (inactive) | 2.62 µM (inactive) | 17.3 µM (inactive) | 5.89 µM (inactive) | 2.75 µM (inactive) | 3.72 µM (inactive) | 4.31 µM (inactive) | 15.2 µM (inactive) | 5.07 µM (inactive) | 6.19 µM (inactive)
